According to patent publication US6362190B1, “Method for treating inflammatory diseases by administering a thrombin inhibitor” (Merck & Co., Inc., priority 1998, dated 2002):

System: adjuvant-induced arthritis (Mycobacterium butyricum) in female Lewis rats
Assay: Development and severity of adjuvant-induced arthritis in female Lewis rats (paw volumes, radiographic scores)
Type: in vivo
Conditions: for Radiographic total scores of secondary paws compared with vehicle treated rats, in words: day 21, secondary paws; for Radiographic scores, Primary paws / Radiographic scores, Secondary paws / Increase in primary foot volume, Day 21 / Increase in secondary foot volume, Day 21: day 21; for Radiographic scores, Primary paws / Radiographic scores, Secondary paws: total score, maximum 26 per foot, high score = high inflammation, thrombin inhibitor 50 mg/kg/day, Indomethacin 1 mg/kg/day oral; for Increase in primary foot volume, Day 14 / Increase in primary foot volume, Day 21: primary (adjuvant-injected) paw; for Increase in primary foot volume, Day 14 / Increase in primary foot volume, Day 21 / Increase in secondary foot volume, Day 14 / Increase in secondary foot volume, Day 21: oral gavage daily, thrombin inhibitor 50 mg/kg, Indomethacin 1 mg/kg; for Increase in primary foot volume, Day 14: mercury displacement plethysmography; for Increase in secondary foot volume, Day 14 / Increase in secondary foot volume, Day 21: secondary (contralateral, not injected) paw
Procedure: The thrombin inhibitor 3-(2-phenylethylamino)-6-methyl-1-(2-amino-6-methyl-5-methylene-carboxamidomethylpyridinyl)-2-pyrazinone was evaluated to determine its effect on induced arthritis. Arthritis was induced by injection of female Lewis rats with Mycobacterium butyricum. The effect of the thrombin inhibitor was compared with the effect of Indomethacin and the effect of a vehicle control.
Fifty 7.5 week old female Lewis rats (body weight 149-174 grams) were included in the study. Forty rats were each injected with an emulsion containing 0.5 mg of Mycobacterium butyricum in 0.1 ml of light mineral oil, and a negative control group of 10 rats was not injected with adjuvant.
Ten of the rats receiving Mycobacterium butyricum further received Indomethacin by oral gavage at a total daily dose of 1 mg/kg. Ten of the rats receiving Mycobacterium butyricum further received the thrombin inhibitor by oral gavage at a total daily dose of 50 mg/kg. Twenty of the rats receiving Mycobacterium butyricum further received a vehicle control of sterile distilled water.
Body weights, primary and secondary paw volumes, and lateral radiographs were determined before and at various time points including 21 days following adjuvant injection. The primary paw was injected with the Mycobacterium butyricum while the secondary (contralateral) paw was not injected. Paw volumes were determined by mercury displacement plethysmography. Lateral radiographs were obtained under Ketamine and Xylazine anesthesia.
Radiographs were made of both hind paws on days 0 and 21 and evaluated for changes in the soft and hard tissues. The following radiographic changes were graded numerically according to severity:increased soft tissue volume (0-4), narrowing or widening of joint spaces ([…]), subchondral erosion (0-3), periosteal reaction (0-4), osteolysis (0-4), subluxation (0-3), and degenerative joint changes (0-3). The maximum possible score for each foot was 26. High scores correspond with high levels of inflammation.

Row | SMILES | Radiographic total scores of primary paws compared with vehicle treated rats, in words (day 21, primary paws, versus vehicle) | Radiographic total scores of secondary paws compared with vehicle treated rats, in words (versus vehicle) | Radiographic scores, Primary paws | Radiographic scores, Secondary paws | Increase in primary foot volume, Day 14 [µL] | Increase in primary foot volume, Day 21 [µL] | Increase in secondary foot volume, Day 14 [µL] | Increase in secondary foot volume, Day 21 [µL] | Effect on the primary paw (foot volume), in words (primary paw, thrombin inhibitor 50 mg/kg/day oral gavage) | Anti-inflammatory effect on the secondary paw (foot volume), in words (secondary paw, thrombin inhibitor 50 mg/kg/day oral gavage)
1 | COc1ccc2c(c1)c(CC(=O)O)c(C)n2C(=O)c1ccc(Cl)cc1 [Indomethacin, reference compound] | significantly less | significantly less | 4.6 ± 1.6 | 3.5 ± 1.4 | 726 ± 174 | 622 ± 156 | 246 ± 162 | 253 ± 138 |  | 
2 | Cc1nc(N)ccc1CNC(=O)Cn1c(C)cnc(NCCc2ccccc2)c1=O [Thrombin inhibitor, 3-(2-phenylethylamino)-6-methyl-1-(2-amino-6-methyl-5-methylene-carboxamidomethylpyridinyl)-2-pyrazinone] |  | significantly less | 14.0 ± 3.3 | 3.8 ± 3.79 | 1591 ± 318 | 1997 ± 605 | 382 ± 312 | 704 ± 289 | insignificant effect | significant anti-inflammatory effect
